The test system of the series is HeLa cells. Kind of series: Cell viability assay (Cell-Titer-Glo) of emulsions, one hour. In kind it is cell-based. As to the method:
HeLa cells (obtained from American Type Culture Collection) were maintained in Dulbecco's Modified Eagle's Medium (Gibco) supplemented with 10% fetal bovine serum (Invitrogen) at 37° C. in a humidified 5% CO2 atmosphere. For viability assays testing biocompatibility of the emulsions, cells were plated in a 96-well white opaque plate format at 40,000 cells per well, allowed to seed overnight, and then treated with emulsions at indicated concentrations for one hour. These viability assays utilized the Cell-Titer-Glo 2.0 reagent (Promega, G9243) according to the manufacturer's instructions. Briefly, 100 μL of Cell-Titer-Glo 2.0 reagent, diluted at 1:1 with culture media, was added to each well containing 100 μl emultion-particles-containing media. Plates were gently agitated for 2 minutes and incubated at room temperature for 10 minutes in the dark to promote adequate mixing. Luminescence was subsequently measured using a Victor 5 plate reader (Perkin Elmer). The intensity of luminescence was normalized to that of cells with no emulsion particles added.

The results in this text go back to patent US20240110150A1, “PHOTON UPCONVERSION BIOMATERIALS, MICELLE AND NANOPARTICLES FOR THREE-DIMENSIONAL (3D) OPTOGENETICS” (THE TRUESTEES OF COLUMBIA UNIVERSITY IN THE CITY OF NEW YORK, priority 2020, published 2024).

Pluronic F127: the “biocompatibility of emulsion surfactants” value is “biocompatible and nontoxic to the cells”.
On to Tween 80, for which the “biocompatibility of emulsion surfactants” value was “only Pluronic F127 was found to be biocompatible and nontoxic”.
